System: HSV-2 G strain
Experiment: HSV-2 Antiviral Assay (Vero cells, cell viability)
Assay type: cell-based
Conditions: Human alphaherpesvirus 2, Vero, 120 h, Vero cells, 160 TCID50 HSV-2 G strain, 5 days, cell viability
Outline: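 Antiviral readout is survival of infected Vero cells: after 5 days at 37 °C with 160 TCID50 HSV-2 G strain plus serially diluted compound (8 points, 3-fold, 0.5% DMSO), WST-8 was added for 3 h and absorbance measured at 460/620 nm. Cells seeded at 1.0×10^4 per well.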

Row | SMILES | EC50 [nM]
1 | Cc1nc(N2CCCN(c3ccc(-c4cc(F)ccc4F)cc3)C2=O)sc1S(=O)(=O)NC[C@H](C)CO [Compound 396] | < 100
2 | Cc1nc(N2CCCN(c3ccc(-c4nccc5ncsc45)cc3)C2=O)sc1S(N)(=O)=O [Compound 260] | < 100
3 | Cc1nc(N2CCCN(c3ccc(-c4cccc5c4C(F)(F)CCO5)cc3)C2=O)sc1S(N)(=O)=O [Compound 266] | 100 to 1000
4 | COc1c(F)cc(F)cc1-c1ccc(N2CC(C(F)(F)F)CN(c3nc(C)c(S(N)(=O)=O)s3)C2=O)cc1 (centres unmarked) [Compound 372] | < 100
5 | Cc1nc(N2C[C@H](C)CN(c3ccc(-c4cc(F)ccc4F)cc3)C2=O)sc1S(N)(=O)=O (single isomer, unassigned) [Compound 319] | < 100
6 | COc1c(F)cc(F)cc1-c1ccc(N2C[C@H](C(C)(C)O)CN(c3nc(C)c(S(N)(=O)=O)s3)C2=O)cc1 (single isomer, unassigned) [Compound 347] | 100 to 1000
7 | Cc1nc(N2CCCN(c3ccc(-c4cc(C(F)F)ccc4F)cc3)C2=O)sc1S(N)(=O)=O [Compound 206] | < 100
8 | Cc1nc(N2CCCN(c3ccc(-c4ccc(F)cc4)cc3)C2=O)sc1S(N)(=O)=O [Compound 189] | 100 to 1000
9 | Cc1nc(N2CCCN(c3ccc(-c4ccccc4C4COC4)cc3)C2=O)sc1S(N)(=O)=O [Compound 197] | 1000 to 5000
10 | Cc1nc(N2CCCN(c3ccc(-c4cc(Cl)cc(Cl)c4F)cc3)C2=O)sc1S(N)(=O)=O [Compound 213] | < 100
11 | Cc1nc(N2CCCN(c3ccc(-c4cc(F)ccc4C(C)(F)F)cc3)C2=O)sc1S(N)(=O)=O [Compound 225] | < 100
12 | COc1ccc(-c2ccc(N3CCCN(c4nc(C)c(S(N)(=O)=O)s4)C3=O)cc2)c2cnn(C)c12 [Compound 58] | < 100
13 | Cc1nc(N2CCCN(c3ccc(-c4ccc(F)c(Cl)c4)cc3)C2=O)sc1S(N)(=O)=O [Compound 186] | 100 to 1000
14 | Cc1nc(N2CCCN(c3ccc(-c4cc(F)cc5c4ccn5C(F)F)cc3)C2=O)sc1S(N)(=O)=O [Compound 299] | < 100
15 | Cc1nc(N2C[C@H](O)CN(c3ccc(-c4cc(F)ccc4F)cc3)C2=O)sc1S(N)(=O)=O (single isomer, unassigned) [Compound 354] | < 100
16 | CN=[S@](C)(=O)c1sc(N2CCCN(c3ccc(-c4cc(F)ccc4F)cc3)C2=O)nc1C (single isomer, unassigned) [Compound 153] | 100 to 1000
17 | Cc1nc(N2CCCN(c3ccc(-c4cccc5ccnn45)cc3)C2=O)sc1S(N)(=O)=O [Compound 248] | < 100
18 | Cc1nc(N2CCCN(c3ccc(-c4cccc5c4OCCC5(F)F)cc3)C2=O)sc1S(N)(=O)=O [Compound 267] | 100 to 1000
19 | Cc1nc(N2CCCN(c3ccc(-c4cccc(-c5ccnn5C)c4)cc3)C2=O)sc1S(N)(=O)=O [Compound 32] | 100 to 1000
20 | Cc1nc(N2CCCN(c3ccc(-c4ccc(C#N)c5nsnc45)cc3)C2=O)sc1S(N)(=O)=O [Compound 286] | 1000 to 5000
21 | Cc1nc(N2CCCN(c3ccc(-c4cccn5cncc45)cc3)C2=O)sc1S(N)(=O)=O [Compound 65] | 100 to 1000
22 | Cc1nc(N2CCCN(c3ccc(-c4cccc5c4OCO5)cc3)C2=O)sc1S(N)(=O)=O [Compound 81] | 100 to 1000

Row | SMILES | EC50 [nM]
23 | COc1cc(-c2ccc(N3CCCN(c4nc(C)c(S(N)(=O)=O)s4)C3=O)cc2)c2nsnc2c1 [Compound 303] | < 100
24 | Cc1nc(N2CCCN(c3ccc(-c4cc(F)cc5cc(C#N)sc45)cc3)C2=O)sc1S(N)(=O)=O [Compound 276] | < 100
25 | Cc1nc(N2CCCN(c3ccc(-c4cc(Cl)ccn4)cc3)C2=O)sc1S(N)(=O)=O [Compound 185] | < 100
26 | COc1c(F)cc(F)cc1-c1ccc(N2CCCN(c3nc(C)c(S(=O)(=O)NCCCCCCCCCCO)s3)C2=O)cc1 [Compound 422] | < 100
27 | Cc1nc(N2CCCN(c3ccc(-c4cc(F)cc(/C=C/C#N)c4)cc3)C2=O)sc1S(N)(=O)=O [Compound 192] | < 100
28 | Cc1nc(N2CCCN(c3ccc(-c4ccccc4F)cc3)C2=O)sc1[S@@](C)(=N)=O (single isomer, unassigned) [Compound 144] | 100 to 1000
29 | Cc1nc(N2CCCN(c3ccc(-c4cc(F)ccc4F)cc3)C2=O)sc1S(=O)(=O)N1CC2(COC2)C1 [Compound 403] | < 100
30 | Cc1nc(N2CC(C)CN(c3ccc(-c4ccccc4F)cc3)C2=O)sc1S(N)(=O)=O (centres unmarked) [Compound 315] | < 100
31 | Cc1nc(N2CCCN(c3ccc(-c4cc(F)ccc4F)cc3)C2=O)sc1S(=O)(=O)NN [Compound 405] | 100 to 1000
32 | Cc1nc(N2CCCN(c3ccc(-c4cncc5nn(C)cc45)cc3)C2=O)sc1S(N)(=O)=O [Compound 271] | 1000 to 5000
33 | Cc1nc(N2CCCN(c3ccc(-c4cccc5c4OCCO5)cc3)C2=O)sc1S(N)(=O)=O [Compound 249] | < 100
34 | Cc1nc(N2CCCN(c3ccc(-c4ccccc4/C=C\C#N)cc3)C2=O)sc1S(N)(=O)=O [Compound 21] | 100 to 1000
35 | Cc1nc(N2CCCN(c3ccc(-c4cc(C(F)(F)F)cc5nn(C)cc45)cc3)C2=O)sc1S(N)(=O)=O [Compound 289] | 1000 to 5000
36 | Cc1nc(N2CCCN(c3ccc(-c4cc(F)ccc4F)cc3)C2=O)sc1S(=O)(=O)NC[C@@H](C)CO [Compound 395] | < 100
37 | Cc1nc(N2CCCN(c3ccc(-c4cc(F)ccc4F)cc3)C2=O)sc1S(=O)(=O)N1CCC(N)C1 (centres unmarked) [Compound 397] | 100 to 1000
38 | Cc1nc(N2CCCN(c3ccc(-c4cccc5nc(N)sc45)cc3)C2=O)sc1S(N)(=O)=O [Compound 69] | < 100
39 | Cc1nc(N2CCCN(c3ccc(-c4cc(F)ccc4C#CC(C)(C)O)cc3)C2=O)sc1S(N)(=O)=O [Compound 19, 2-(3-(5′-Fluoro-2′-(3-hydroxy-3-methylbut-1-yn-1-yl)-[1,1′-biphenyl]-4-yl)-2-oxotetrahydropyrimidin-1(2H)-yl)-4-methylthiazole-5-sulfonamide] | 1000 to 5000
40 | Cc1nc(N2CC3(CC3)CN(c3ccc(-c4ncccc4F)cc3)C2=O)sc1S(N)(=O)=O [Compound 112] | < 100
41 | Cc1nc(N2CCCN(c3ccc(-c4ccc(C#N)c5c4ccn5C)cc3)C2=O)sc1S(N)(=O)=O [Compound 300] | 100 to 1000
42 | Cc1nc(N2CCCN(c3ccc(-c4cc(C(C)(F)F)cc5c4OCO5)cc3)C2=O)sc1S(N)(=O)=O [Compound 273] | 100 to 1000
43 | Cc1nc(N2CCCN(c3ccc(-c4snc5ccc(-c6ccccc6)cc45)cc3)C2=O)sc1S(N)(=O)=O [Compound 309] | < 100
44 | Cc1nc(N2C(=O)N(c3ccc(-c4cc(F)ccc4F)cc3)CC[C@@H]2C)sc1S(N)(=O)=O (single isomer, unassigned) [Compound 109] | < 100

Row | SMILES | EC50 [nM]
45 | CN=S(C)(=O)c1sc(N2CCCN(c3ccc(-c4ccccc4F)cc3)C2=O)nc1C (centres unmarked) [Compound 145] | 100 to 1000
46 | COc1c(F)cc(F)cc1-c1ccc(N2C[C@@H](C(F)(F)F)CN(c3nc(C)c(S(N)(=O)=O)s3)C2=O)cc1 (single isomer, unassigned) [Compound 373] | < 100
47 | Cc1nc(N2CCCN(c3ccc(-c4cccc5cc(N)ncc45)cc3)C2=O)sc1S(N)(=O)=O [Compound 268] | < 100
48 | Cc1nc(N2CC(C)CN(c3ccc(-c4ccccc4Cl)cc3)C2=O)sc1S(N)(=O)=O (centres unmarked) [Compound 321] | < 100
49 | Cc1nc(N2CCCN(c3ccc(-c4ccccc4)c4sncc34)C2=O)sc1S(N)(=O)=O [Compound 312] | 1000 to 5000
50 | Cc1nc(N2CCCN(c3ccc(-c4cc(F)ccc4-c4cncs4)cc3)C2=O)sc1S(N)(=O)=O [Compound 231] | 100 to 1000
51 | Cc1nc(N2CCCN(c3ccc(-c4cc(F)cc5c4c(F)cn5C)cc3)C2=O)sc1S(N)(=O)=O [Compound 295] | < 100
52 | COc1c(F)cc(F)cc1-c1ccc(N2C[C@@H](C(C)(C)O)CN(c3nc(C)c(S(N)(=O)=O)s3)C2=O)cc1 (single isomer, unassigned) [Compound 346] | 100 to 1000
53 | Cc1nc(N2C[C@H](F)CN(c3ccc(-c4cc(F)ccc4F)cc3)C2=O)sc1S(N)(=O)=O (single isomer, unassigned) [Compound 364] | < 100
54 | Cc1nc(N2CCCN(c3ccc(-c4cc(F)ccc4F)cc3)C2=O)sc1S(=O)(=O)NCC(C)CO (centres unmarked) [Compound 394] | < 100
55 | Cc1nc(N2CCCN(c3ccc(-c4ncccc4C(F)(F)F)cc3)C2=O)sc1S(N)(=O)=O [Compound 232] | 100 to 1000
56 | COC(=O)C1CN(c2ccc(-c3cc(F)ccc3F)cc2)C(=O)N(c2nc(C)c(S(N)(=O)=O)s2)C1 (centres unmarked) [Compound 384] | < 100
57 | Cc1nc(N2CCCN(c3ccc(-c4cc(F)ccc4F)cc3)C2=O)sc1S(=O)(=O)N1CC[C@H](N)C1 [Compound 398] | 100 to 1000
58 | CNS(=O)(=O)c1sc(N2CCCN(c3ccc(-c4cccc5cc(N)ncc45)cc3)C2=O)nc1C [Compound 411] | < 100
59 | Cc1nc(N2CCCN(c3ccc(-c4cc(F)cc5cc(C(N)=O)sc45)cc3)C2=O)sc1S(N)(=O)=O [Compound 254] | 100 to 1000
60 | NS(=O)(=O)c1sc(N2CCCN(c3ccc(-c4cc(F)ccc4F)cc3)C2=O)nc1CO [Compound 440, 2-(3-(2′,5′-difluoro-[1,1′-biphenyl]-4-yl)-2-oxotetrahydropyrimidin-1(2H)-yl)-4-(hydroxymethyl)thiazole-5-sulfonamide] | < 100
61 | Cc1nc(N2CCCN(c3ccc(-c4cc(C(F)(F)F)cc5c4cnn5C)cc3)C2=O)sc1S(N)(=O)=O [Compound 287] | < 100
62 | Cc1nc(N2CCCN(c3ccc(-c4snc5c(F)cc(F)cc45)cc3)C2=O)sc1S(N)(=O)=O [Compound 306] | < 100
63 | Cc1nc(N2CCCN(c3ccc(-c4cc(F)cc5c4c(C#N)cn5C)cc3)C2=O)sc1S(N)(=O)=O [Compound 294] | 100 to 1000
64 | Cc1nc(N2C[C@@H](C)CN(c3ccc(-c4ccccc4F)cc3)C2=O)sc1S(N)(=O)=O [Compound 317] | < 100
65 | Cc1nc(N2CCCCN(c3ccc(-c4cc(F)ccc4F)cc3)C2=O)sc1[S@@](C)(=N)=O (single isomer, unassigned) [Compound 426] | < 100

Source: US20260103471A1, “CYCLIC UREA THIAZOLYL COMPOUNDS FOR TREATMENT OF HSV” (Assembly Biosciences, Inc., priority 2022, published 2026)
